Data from patent publication US20230374035A1, “RAS INHIBITORS” (Revolution Medicines, Inc., priority 2019, published 2023).
Read-outs that look alike come from different tables or passages of the source. Blank lines part the entries; values can stand above or below the molecule they belong to.

Columns and labels:
KRAS Q61H = KRAS Q61H (Homo sapiens, UniProt P01116+P62937, Q61H); assay: Disruption of BRAF RBD interaction with K-Ras (FRET / MOA assay); assay type: biochemical; settings: read-out: KRAS Q61H FRET data IC50
Experimental: (§1) Compound is present in plate wells as a 10-point 3-fold dilution series starting at a final concentration of 30 μM. […] Compounds that facilitate disruption of a Ras:RAF complex are identified as those eliciting a decrease in the TR-FRET ratio relative to DMSO control wells.
(§2) Note—The following protocol describes a procedure for monitoring disruption of K-Ras G12C (GMP-PNP) binding to BRAF^RBD by a compound of the invention. This protocol may also be executed substituting other Ras proteins or nucleotides.
(§3) The purpose of this biochemical assay was to measure the ability of test compounds to facilitate ternary complex formation between a nucleotide-loaded K-Ras isoform and Cyclophilin A; the resulting ternary complex disrupts binding to a BRAF^RBD construct, inhibiting K-Ras signaling through a RAF effector. Data is reported as IC50 values.
(§4) Compound was present in plate wells as a 10-point 3-fold dilution series starting at a final concentration of 30 μM. […] Compounds that facilitate disruption of a K-Ras:RAF complex were identified as those eliciting a decrease in the TR-FRET ratio relative to DMSO control wells.

KRAS G12C = KRAS G12C (Homo sapiens, UniProt P01116+P62937, G12C); assay: as above; assay type: biochemical
Experimental: as §1, §2, §3, §4

NRAS WT = NRAS WT (Homo sapiens, UniProt P01111+P62937); assay: Disruption of BRAF RBD interaction with Ras (FRET / MOA assay); assay type: biochemical; settings: read-out: NRAS WT FRET data IC50
Outline: (§5)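 TR-FRET readout: a drop in ratio versus DMSO wells marks disruption of the Ras:BRAF^RBD complex, reported as IC50. Compound acts via a Cyclophilin A ternary complex with nucleotide-loaded Ras (e.g., GMP-PNP). Top final concentration was 30 μM, 10 points, 3-fold steps.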

NRAS Q61R = NRAS Q61R (Homo sapiens, UniProt P01111+P62937, Q61R); assay: as above; assay type: biochemical
Outline: as §5

NRAS Q61K = NRAS Q61K (Homo sapiens, UniProt P01111+P62937, Q61K); assay: as above; assay type: biochemical; settings: read-out: NRAS Q61K FRET data IC50
Outline: as §5

NCI-H358 (K-Ras G12C) = assay: CellTiter-Glo Cell Viability Assay; assay type: cell-based; settings: Homo sapiens, NCI-H358, 120 h; H358, 5-day treatment
Experimental: (§6) Determination of Cell Viability in RAS Mutant Cancer Cell Lines
(§7) Protocol: CellTiter-Glo® Cell Viability Assay
(§8) Note—The following protocol describes a procedure for monitoring cell viability of K-Ras mutant cancer cell lines in response to a compound of the invention. Other RAS isoforms may be employed, though the number of cells to be seeded will vary based on cell line used.
(§9) Test compounds (132.5 nl) were directly dispensed into the assay plates containing cells. […] On day 5, assay plates and their contents were equilibrated to room temperature for approximately 30 minutes. […] Luminescence was measured using the PerkinElmer Enspire. Data were normalized by the following: (Sample signal/Avg. DMSO)*100. The data were fit using a four-parameter logistic fit.

Capan-1 (K-Ras G12V) = assay: CellTiter-Glo Cell Viability Assay; assay type: cell-based; settings: Homo sapiens, 120 h; Capan-1, 5-day treatment
Experimental: as §6, §7, §8, §9

[1] = tested on: Capan-2 KRASG12V/wt xenograft model; assay: Tumor growth in Capan-2 CDX model; assay type: in vivo, BALB/c nude mice; settings: Compound A 100 mg/kg po bid daily, RMC-4550 20 mg/kg po every other day
Experimental: Capan-2 cells were implanted in 50% Matrigel. Animals were randomized and treatment was initiated at average tumor volume of ˜180 mm3. […] Ns=no significance; ***p<0.001 by one-way ANOVA.
Once tumors reached an average size of ˜180 mm3, mice were randomized to treatment groups to start the administration of test articles or vehicle. […] Body weight and tumor volume (using calipers) was measured twice weekly until study endpoints.

KRAS G13C = KRAS G13C (Homo sapiens, UniProt P01116+P62937, G13C); assay: Disruption of BRAF RBD interaction with K-Ras (FRET / MOA assay); assay type: biochemical; settings: read-out: KRAS G13C FRET data IC50
Experimental: as §1, §2, §3, §4

KRAS G12V = KRAS G12V (Homo sapiens, UniProt P01116+P62937, G12V); assay: as above; assay type: biochemical; settings: read-out: KRAS G12V FRET data IC50
Experimental: as §1, §2, §3, §4

NRAS G12C = NRAS G12C (Homo sapiens, UniProt P01111+P62937, G12C); assay: Disruption of BRAF RBD interaction with Ras (FRET / MOA assay); assay type: biochemical
Outline: as §5

SWi573 = settings: cited from earlier work
[2] = read-out: KRAS G12C FRET data IC50
[3] = read-out: NRAS Q61R FRET data IC50

Sequence of KRAS Q61H (P01116 1-188 isoform P01116-2 Q61H): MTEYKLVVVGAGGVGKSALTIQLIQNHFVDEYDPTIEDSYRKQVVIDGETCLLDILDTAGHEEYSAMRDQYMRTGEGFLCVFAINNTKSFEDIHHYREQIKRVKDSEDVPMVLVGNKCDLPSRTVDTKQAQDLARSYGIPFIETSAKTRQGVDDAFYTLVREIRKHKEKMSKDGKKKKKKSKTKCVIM
Sequence of KRAS Q61H (P62937 whole entry): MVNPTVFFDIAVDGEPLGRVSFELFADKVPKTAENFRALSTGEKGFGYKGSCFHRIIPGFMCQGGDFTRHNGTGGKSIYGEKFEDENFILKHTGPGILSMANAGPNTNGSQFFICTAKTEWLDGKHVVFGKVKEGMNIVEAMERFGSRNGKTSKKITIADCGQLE
Sequence of NRAS WT (P01111 whole entry): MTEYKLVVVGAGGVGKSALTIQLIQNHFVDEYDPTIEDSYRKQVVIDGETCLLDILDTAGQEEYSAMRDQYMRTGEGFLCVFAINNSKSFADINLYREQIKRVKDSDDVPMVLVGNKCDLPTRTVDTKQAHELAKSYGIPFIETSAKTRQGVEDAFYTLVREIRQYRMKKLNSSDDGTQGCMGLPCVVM
Sequence of NRAS WT (P62937 whole entry): as the sequence (P62937 whole entry) above
Sequence of KRAS G12C (P01116 1-188 isoform P01116-2 G12C): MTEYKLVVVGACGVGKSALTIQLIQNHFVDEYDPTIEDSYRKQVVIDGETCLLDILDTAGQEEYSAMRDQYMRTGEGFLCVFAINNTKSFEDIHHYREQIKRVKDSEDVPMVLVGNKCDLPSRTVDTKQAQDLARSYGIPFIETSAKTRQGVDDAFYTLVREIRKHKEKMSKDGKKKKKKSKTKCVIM
Sequence of KRAS G12C (P62937 whole entry): as the sequence (P62937 whole entry) above
Sequence of NRAS Q61R (P01111 whole entry Q61R): as the sequence (P01111 whole entry) above, with Q61R counted along it
Sequence of NRAS Q61R (P62937 whole entry): as the sequence (P62937 whole entry) above
Sequence of NRAS Q61K (P01111 whole entry Q61K): as the sequence (P01111 whole entry) above, with Q61K counted along it
Sequence of NRAS Q61K (P62937 whole entry): as the sequence (P62937 whole entry) above
Sequence of NRAS G12C (P01111 whole entry G12C): as the sequence (P01111 whole entry) above, with G12C counted along it
Sequence of NRAS G12C (P62937 whole entry): as the sequence (P62937 whole entry) above
Sequence of KRAS G13C (P01116 1-188 isoform P01116-2 G13C): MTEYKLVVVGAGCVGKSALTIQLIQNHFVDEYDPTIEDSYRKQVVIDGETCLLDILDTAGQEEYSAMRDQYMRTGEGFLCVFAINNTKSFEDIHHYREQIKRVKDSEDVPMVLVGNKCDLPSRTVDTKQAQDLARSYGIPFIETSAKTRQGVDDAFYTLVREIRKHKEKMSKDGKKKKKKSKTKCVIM
Sequence of KRAS G13C (P62937 whole entry): as the sequence (P62937 whole entry) above
Sequence of KRAS G12V (P01116 1-188 isoform P01116-2 G12V): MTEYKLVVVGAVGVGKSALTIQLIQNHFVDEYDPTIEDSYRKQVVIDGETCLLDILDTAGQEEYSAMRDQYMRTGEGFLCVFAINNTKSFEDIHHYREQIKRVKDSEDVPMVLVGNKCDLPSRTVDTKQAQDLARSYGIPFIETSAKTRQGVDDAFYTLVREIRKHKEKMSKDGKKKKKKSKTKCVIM
Sequence of KRAS G12V (P62937 whole entry): as the sequence (P62937 whole entry) above

SMILES: CCn1c(-c2cccnc2[C@H](C)OC)c2c3cc(ccc31)-c1csc(n1)C[C@H](NC(=O)OC(C)(C)C)C(=O)N1CCC[C@H](N1)C(=O)OCC(C)(C)C2
ring closure, yield of all isomers (from CCn1c(-c2cccnc2[C@H](C)OC)c(CC(C)(C)CO)c2cc(-c3csc(C[C@H](NC(=O)OC(C)(C)C)C(=O)N4CCC[C@@H](C(=O)O)N4)n3)ccc21, ester bond, EDCl/HOBt/DIPEA, DCM, 12.65 mM, 25.0 °C, 16.0 h): 81%

SMILES: CCn1c(-c2cccnc2[C@H](C)OC)c2c3cc(ccc31)-c1cc(O)cc(c1)C[C@H](NS(=O)(=O)C1CS(=O)(=O)C1)C(=O)N1CCC[C@H](N1)C(=O)OCC(C)(C)C2 (racemic) [Compound A191]
IC50 (KRAS Q61H): > 10000 nM | IC50 (KRAS G12C; [2]): > 10000 nM | IC50 (NRAS WT): > 10000 nM | IC50 (NRAS Q61R; [3]): > 10000 nM | IC50 (NRAS Q61K): > 10000 nM

IC50 (NCI-H358 (K-Ras G12C)): < 10 nM | IC50 (NRAS Q61R; [3]): 10 to 100 nM
SMILES: CCn1c(-c2cc(N3CCN(C)CC3)cnc2[C@H](C)OC)c2c3cc(ccc31)-c1csc(n1)C[C@H](NC(=O)[C@H](C1CCCC1)N(C)C(=O)[C@@H]1OCC[C@@H]1c1ccccc1)C(=O)N1CCC[C@H](N1)C(=O)OCC(C)(C)C2 (atropisomer, axis not shown) [Compound A593]
IC50 (Capan-1 (K-Ras G12V)): < 10 nM

SMILES: Cc1nc(N2CCC3(CC2)CO[C@@H](C)[C@H]3N)c(CO)nc1-c1cccc(Cl)c1Cl [RMC-4550]
TGI [1]: 39%

SMILES: CCn1c(-c2cc(N3CCN(C)CC3)cnc2[C@H](C)OC)c2c3cc(ccc31)-c1csc(n1)C[C@H](NC(=O)[C@H](C(C)C)N(C)C(=O)N1CC(C3COC3)C1)C(=O)N1CCC[C@H](N1)C(=O)OCC(C)(C)C2 (atropisomer, axis not shown) [Compound A465]
IC50 (NCI-H358 (K-Ras G12C)): < 10 nM | IC50 (Capan-1 (K-Ras G12V)): < 10 nM | IC50 (NRAS Q61R; [3]): 10 to 100 nM | IC50 (NRAS Q61K): 10 to 100 nM

SMILES: CC(C)[Si](Oc1cc2cc(c1)-c1ccc3[nH]c(I)c(c3c1)CC(C)(C)COC(=O)[C@@H]1CCCN(N1)C(=O)[C@@H](NC(=O)OC(C)(C)C)C2)(C(C)C)C(C)C
ring closure, yield of all isomers (from CC(C)[Si](Oc1cc(C[C@H](NC(=O)OC(C)(C)C)C(=O)N2CCC[C@@H](C(=O)O)N2)cc(-c2ccc3[nH]c(I)c(CC(C)(C)CO)c3c2)c1)(C(C)C)C(C)C, ester bond, EDCl/HOBt/DIPEA, DCM, 22.8 mM, 25.0 °C, 16.0 h): 50%

SMILES: CCn1c(-c2cccnc2[C@H](C)OC)c2c3cc(ccc31)-c1csc(n1)[C@@H](OC)[C@H](N(Cc1ccccc1)Cc1ccccc1)C(=O)N1CCC[C@H](N1)C(=O)OCC(C)(C)C2
ring closure, yield of all isomers (from CCn1c(-c2cccnc2[C@H](C)OC)c(CC(C)(C)COC(=O)[C@@H]2CCCN(C(=O)[C@H]([C@H](OC)c3nc(Br)cs3)N(Cc3ccccc3)Cc3ccccc3)N2)c2cc(B3OC(C)(C)C(C)(C)O3)ccc21, cc_pd bond, Pd(DtBPF)Cl2, dioxane, 40.0 mM, 80.0 °C, 2.0 h): 44.4%

SMILES: CCn1c(-c2cc(N3CCN(C(=O)OCc4ccccc4)CC3)cnc2[C@H](C)OC)c2c3cc(ccc31)-c1csc(n1)C[C@H](NC(=O)OC(C)(C)C)C(=O)N1CCC[C@H](N1)C(=O)OCC(C)(C)C2
ring closure, yield of all isomers (from CCn1c(-c2cc(N3CCN(C(=O)OCc4ccccc4)CC3)cnc2[C@H](C)OC)c(CC(C)(C)CO)c2cc(-c3csc(C[C@H](NC(=O)OC(C)(C)C)C(=O)N4CCC[C@@H](C(=O)O)N4)n3)ccc21, ester bond, EDCl/HOBt/DIPEA, MeCN, 10.34 mM, 25.0 °C, 16.0 h): 54.8%

SMILES: CO[C@@H](C)c1ncccc1-c1c2c3cc(ccc3n1CC(F)(F)F)-c1csc(n1)C[C@H](NC(=O)[C@H](C(C)C)N(C)C(=O)N1CC(N(C)C)C1)C(=O)N1CCC[C@H](N1)C(=O)OCC(C)(C)C2 (atropisomer, axis not shown) [Compound A328]
IC50 (KRAS Q61H): > 10000 nM | IC50 (KRAS G12C; [2]): > 10000 nM | IC50 (NRAS WT): > 10000 nM | IC50 (NRAS Q61R; [3]): > 10000 nM | IC50 (NRAS Q61K): > 10000 nM

IC50 (KRAS G13C): < 10 nM | IC50 (KRAS G12V): < 10 nM | IC50 (KRAS G12C; [2]): < 10 nM | IC50 (NCI-H358 (K-Ras G12C)): < 10 nM | IC50 (NRAS G12C): < 10 nM
SMILES: CCn1c(-c2cccnc2[C@H](C)OC)c2c3cc(ccc31)-c1cc(O)cc(c1)C[C@H](NC(=O)[C@H](C(C)C)N(C)C(=O)[C@@H]1CN(C(=O)OC)C[C@@H]1C)C(=O)N1CCC[C@H](N1)C(=O)OCC(C)(C)C2 (atropisomer, axis not shown) [Compound A325]

SMILES: CCn1c(-c2cccnc2[C@H](C)OC)c2c3cc(ccc31)-c1cc(cc(S(C)(=O)=O)c1)C[C@H](NC(=O)[C@H](C(C)C)N(C)C(C)=O)C(=O)N1CCC[C@H](N1)C(=O)OCC(C)(C)C2 (racemic) [Compound A154]
IC50 (KRAS Q61H): > 10000 nM | IC50 (KRAS G12C; [2]): > 10000 nM | IC50 (NRAS WT): > 10000 nM | IC50 (NRAS Q61R; [3]): > 10000 nM | IC50 (NRAS Q61K): > 10000 nM

IC50 (NCI-H358 (K-Ras G12C)): < 10 nM | IC50 (NRAS Q61R; [3]): 10 to 100 nM | IC50 (NRAS Q61K): 10 to 100 nM
SMILES: CCn1c(-c2cc(N3CCN(C)CC3)cnc2[C@H](C)OC)c2c3cc(ccc31)-c1csc(n1)C[C@H](NC(=O)[C@H](C(C)C)N(C)C(=O)[C@@H]1OCC[C@@H]1c1ccncc1)C(=O)N1CCC[C@H](N1)C(=O)OCC(C)(C)C2 (atropisomer, axis not shown) [Compound A450]
IC50 (Capan-1 (K-Ras G12V)): < 10 nM

SMILES: C=CC(=O)N1CCN(c2nc(=O)n(-c3c(C)ccnc3C(C)C)c3nc(-c4c(O)cccc4F)c(F)cc23)[C@@H](C)C1 [AMG510]
sensitivity of SWi573 to inhibitor (SWi573): insensitive

SMILES: CCn1c(-c2cccnc2[C@H](C)OC)c2c3cc(ccc31)-c1cc(O)cc(c1)C[C@H](NS(=O)(=O)CC#N)C(=O)N1CCC[C@H](N1)C(=O)OCC(C)(C)C2 (racemic) [Compound A186]
IC50 (KRAS Q61H): > 10000 nM | IC50 (KRAS G12C): > 10000 nM | IC50 (NRAS WT): > 10000 nM | IC50 (NRAS Q61R): > 10000 nM | IC50 (NRAS Q61K): > 10000 nM

IC50 (KRAS G12C; [2]): < 10 nM | IC50 (NRAS G12C): < 10 nM
SMILES: CCn1c(-c2cccnc2[C@H](C)OC)c2c3cc(ccc31)-c1cc(O)cc(c1)C[C@H](NC(=O)[C@H](C(C)C)N(C)C(=O)[C@@H]1C[C@@H]1O)C(=O)N1CCC[C@H](N1)C(=O)OCC(C)(C)C2 (atropisomer, axis not shown) [Compound A323]

SMILES: CCn1c(-c2cccnc2[C@H](C)OC)c2c3cc(ccc31)-c1csc(n1)C[C@H](NC(=O)OC(C)(C)C)C(=O)N1CC[C@H](C)[C@H](N1)C(=O)OCC(C)(C)C2
ring closure, yield of all isomers (from CCn1c(-c2cccnc2[C@H](C)OC)c(CC(C)(C)COC(=O)[C@H]2NN(C(=O)[C@H](Cc3nc(Br)cs3)NC(=O)OC(C)(C)C)CC[C@@H]2C)c2cc(B3OC(C)(C)C(C)(C)O3)ccc21, cc_pd bond, Pd(DTBpf)Cl2, K3PO4, dioxane, 17.5 mM, 60.0 °C, 1.0 h): 44.7%

IC50 (KRAS G13C): < 10 nM
SMILES: CCn1c(-c2cccnc2[C@H](C)OC)c2c3cc(ccc31)-c1cc(O)cc(c1)C[C@H](NC(=O)[C@H](C(C)C)N(C)C(=O)[C@H]1CCN(C(=O)C(C)(C)NC)C1)C(=O)N1CCC[C@H](N1)C(=O)OCC(C)(C)C2 (atropisomer, axis not shown) [Compound A381]
